Results on 36 molecules are retold here after PubChem BioAssay AID488867 (Broad Institute, 2010).

Calls of active or inactive are those of the source.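 How the source made its calls: active means a rising curve with AC50 no higher than ten times the top valid dose of that compound; inconclusive means flat curve between 30 and 70 percent, or failed fit; inactive means the rest.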

In general, AC50 refers to the midpoint of the concentration-response curve, whichever way the signal moves.

The first test concerns INS-1E cytokine-induced apoptosis, JC-1 mitochondrial potential, 48 h. The test can be described thus: protection from cytokine-driven beta-cell apoptosis, dose response, JC-1 fluorescence, INS-1E, dry powder, set 2 (AID 488867).
Details: not given
With `Cc1ccc(S(=O)(=O)N(C)C[C@@H]2Oc3c(NC(=O)Nc4ccccc4)cccc3C(=O)N([C@@H](C)CO)C[C@H]2C)cc1`, the AC50 was > 26 µM (inactive).

`COc1ccc(S(=O)(=O)N(C)C[C@@H]2Oc3c(NC(=O)Nc4cccc5ccccc45)cccc3C(=O)N([C@H](C)CO)C[C@H]2C)cc1`: the AC50 is > 23.5 µM (inactive).

For the molecule `COc1ccc(S(=O)(=O)N(C)C[C@@H]2Oc3c(NC(=O)Nc4ccccc4)cccc3C(=O)N([C@H](C)CO)C[C@H]2C)cc1`, the AC50 was > 26 µM (inactive).

`COc1ccc(S(=O)(=O)N(C)C[C@H]2Oc3c(NC(=O)Nc4cccc5ccccc45)cccc3C(=O)N([C@@H](C)CO)C[C@@H]2C)cc1`: the AC50 was > 26 µM (inactive).

Test system in the next test: not listed separately
Described as above. The settings on record: INS-1E cytokine-induced apoptosis, JC-1 mitochondrial potential, 48 h; at 12 µM (top of the series).
As to `C[C@@H]1CN([C@@H](C)CO)C(=O)c2cccc(NC(=O)Nc3cccc4ccccc34)c2O[C@H]1CN(C)S(=O)(=O)c1ccc2c(c1)OCCO2`, the protection from cytokine-induced depolarization was 29.7% (inactive).

Still in this test, the particulars now being: INS-1E cytokine-induced apoptosis, JC-1 mitochondrial potential, 48 h; at 23.5 µM (top of the series).
With `Cc1ccc(S(=O)(=O)N(C)C[C@@H]2Oc3c(NC(=O)Nc4cccc5ccccc45)cccc3C(=O)N([C@H](C)CO)C[C@H]2C)cc1`, the protection from cytokine-induced depolarization is 7.94% (inactive).

Turning to `C[C@@H]1CN([C@@H](C)CO)C(=O)c2cccc(NC(=O)Nc3cccc4ccccc34)c2O[C@H]1CN(C)C(=O)Nc1ccc(C(F)(F)F)cc1`, the protection from cytokine-induced depolarization is 7.29% (inactive).

`COc1ccc(S(=O)(=O)N(C)C[C@@H]2Oc3c(NC(=O)C4CC4)cccc3C(=O)N([C@@H](C)CO)C[C@H]2C)cc1`: the protection from cytokine-induced depolarization is -7.4% (inactive).

As to `COc1ccc(S(=O)(=O)N(C)C[C@@H]2Oc3c(NS(=O)(=O)c4ccc(C)cc4)cccc3C(=O)N([C@@H](C)CO)C[C@H]2C)cc1`, the protection from cytokine-induced depolarization was -2.55% (inactive).

The test is the same for the next values; noted with them: INS-1E cytokine-induced apoptosis, JC-1 mitochondrial potential, 48 h; at 26 µM (top of the series).
On to `C[C@@H]1CN([C@@H](C)CO)C(=O)c2cccc(NC(=O)Nc3cccc4ccccc34)c2O[C@H]1CN(C)S(=O)(=O)c1ccc(OC(F)(F)F)cc1`, for which the protection from cytokine-induced depolarization was -2.77% (inactive).

Turning to `C[C@@H]1CN([C@@H](C)CO)C(=O)c2cccc(NC(=O)Nc3cccc4ccccc34)c2O[C@H]1CN(C)S(=O)(=O)c1cccc(F)c1`, the protection from cytokine-induced depolarization is -9.88% (inactive).

Regarding `COc1ccc(S(=O)(=O)N(C)C[C@@H]2Oc3c(NC(=O)Nc4cccc5ccccc45)cccc3C(=O)N(C(C)C)C[C@H]2C)cc1`, the protection from cytokine-induced depolarization was 36.6% (inactive).

Regarding `CNC[C@@H]1Oc2c(NC(=O)Nc3cccc4ccccc34)cccc2C(=O)N([C@@H](C)CO)C[C@H]1C`, the protection from cytokine-induced depolarization is 9.02% (inactive).

`C[C@@H]1CN([C@H](C)CO)C(=O)c2cccc(NC(=O)Nc3ccccc3)c2O[C@H]1CN(C)S(=O)(=O)c1ccc(Cl)cc1`: the protection from cytokine-induced depolarization was 15.6% (inactive).

As to `COc1ccc(S(=O)(=O)N(C)C[C@@H]2Oc3c(NC(=O)C4CCCCC4)cccc3C(=O)N([C@@H](C)CO)C[C@H]2C)cc1`, the protection from cytokine-induced depolarization is 2.77% (inactive).

Turning to `C[C@@H]1CN([C@H](C)CO)C(=O)c2cccc(NC(=O)Nc3cccc4ccccc34)c2O[C@H]1CN(C)S(=O)(=O)c1ccc(Cl)cc1`, the protection from cytokine-induced depolarization is 4.01% (inactive).

Turning to `C[C@@H]1CN([C@@H](C)CO)C(=O)c2cccc(NC(=O)Nc3ccccc3)c2O[C@H]1CN(C)S(=O)(=O)c1ccc(F)cc1`, the protection from cytokine-induced depolarization is 7.91% (inactive).

Regarding `COc1ccc(NC(=O)Nc2cccc3c2O[C@@H](CN(C)S(=O)(=O)c2ccc(OC)cc2)[C@H](C)CN([C@@H](C)CO)C3=O)cc1`, the protection from cytokine-induced depolarization was 0.556% (inactive).

On to `C[C@@H]1CN([C@@H](C)CO)C(=O)c2cccc(NC(=O)Nc3cccc4ccccc34)c2O[C@H]1CN(C)S(=O)(=O)c1cccs1`, for which the protection from cytokine-induced depolarization was 3.88% (inactive).

Regarding `C[C@@H]1CN([C@@H](C)CO)C(=O)c2cccc(NC(=O)Nc3cccc4ccccc34)c2O[C@H]1CN(C)CC1CC1`, the protection from cytokine-induced depolarization was 10.5% (inactive).

As to `COc1ccc(S(=O)(=O)N(C)C[C@@H]2Oc3c(NC(=O)c4cc(C)nn4C)cccc3C(=O)N([C@@H](C)CO)C[C@H]2C)cc1`, the protection from cytokine-induced depolarization was 1.8% (inactive).

Consider `C[C@@H]1CN([C@@H](C)CO)C(=O)c2cccc(NC(=O)Nc3cccc4ccccc34)c2O[C@H]1CN(C)S(=O)(=O)c1ccccc1F`, for which the protection from cytokine-induced depolarization was -16.5% (inactive).

Take `C[C@@H]1CN([C@@H](C)CO)C(=O)c2cccc(NC(=O)Nc3cccc4ccccc34)c2O[C@H]1CN(C)S(=O)(=O)c1ccc2c(c1)OCCO2`: the protection from cytokine-induced depolarization was 26.8% (inactive).

For `COc1ccc(S(=O)(=O)N(C)C[C@@H]2Oc3c(NS(=O)(=O)c4ccccc4)cccc3C(=O)N([C@@H](C)CO)C[C@H]2C)cc1`, the protection from cytokine-induced depolarization is -2.15% (inactive).

Consider `COc1ccc(S(=O)(=O)N(C)C[C@@H]2Oc3c(NC(=O)Nc4ccc5c(c4)OCO5)cccc3C(=O)N([C@@H](C)CO)C[C@H]2C)cc1`, for which the protection from cytokine-induced depolarization is 4.22% (inactive).

Consider `COc1ccc(S(=O)(=O)N(C)C[C@@H]2Oc3c(NS(=O)(=O)c4cn(C)cn4)cccc3C(=O)N([C@@H](C)CO)C[C@H]2C)cc1`, for which the protection from cytokine-induced depolarization is -9.04% (inactive).

For the molecule `C[C@@H]1CN([C@@H](C)CO)C(=O)c2cccc(NC(=O)Nc3ccccc3)c2O[C@H]1CN(C)S(=O)(=O)c1ccc(Cl)cc1`, the protection from cytokine-induced depolarization is 17.7% (inactive).

Take `COc1ccc(S(=O)(=O)N(C)C[C@H]2Oc3c(NC(=O)Nc4cccc5ccccc45)cccc3C(=O)N([C@H](C)CO)C[C@H]2C)cc1`: the protection from cytokine-induced depolarization was -8.55% (inactive).

In the case of `COc1ccc(S(=O)(=O)N(C)C[C@@H]2Oc3c(NC(=O)Nc4ccc(F)cc4)cccc3C(=O)N([C@H](C)CO)C[C@H]2C)cc1`, the protection from cytokine-induced depolarization is 10.8% (inactive).

For `COc1ccc(S(=O)(=O)N(C)C[C@@H]2Oc3c(NS(=O)(=O)c4ccc(Cl)cc4)cccc3C(=O)N([C@@H](C)CO)C[C@H]2C)cc1`, the protection from cytokine-induced depolarization is -6.3% (inactive).

Regarding `COc1ccc(S(=O)(=O)Nc2cccc3c2O[C@@H](CN(C)S(=O)(=O)c2ccc(OC)cc2)[C@H](C)CN([C@@H](C)CO)C3=O)cc1`, the protection from cytokine-induced depolarization is 3.9% (inactive).

For the molecule `Cc1ccc(S(=O)(=O)N(C)C[C@@H]2Oc3c(NC(=O)Nc4ccccc4)cccc3C(=O)N([C@H](C)CO)C[C@H]2C)cc1`, the protection from cytokine-induced depolarization is 11.2% (inactive).

Turning to `COc1ccc(NC(=O)N(C)C[C@@H]2Oc3c(NC(=O)Nc4cccc5ccccc45)cccc3C(=O)N([C@@H](C)CO)C[C@H]2C)cc1`, the protection from cytokine-induced depolarization is 0.86% (inactive).

In the case of `COc1ccc(S(=O)(=O)N(C)C[C@@H]2Oc3c(NC(=O)c4ccncc4)cccc3C(=O)N([C@@H](C)CO)C[C@H]2C)cc1`, the protection from cytokine-induced depolarization was -1.06% (inactive).

Regarding `COc1ccc(S(=O)(=O)N(C)C[C@@H]2Oc3c(NC(=O)Nc4cccc5ccccc45)cccc3C(=O)N([C@@H](C)CO)C[C@@H]2C)cc1`, the protection from cytokine-induced depolarization is -0.543% (inactive).

Regarding `COc1ccc(S(=O)(=O)N(C)C[C@@H]2Oc3c(NC(=O)Nc4cccc5ccccc45)cccc3C(=O)N([C@H](C)CO)C[C@@H]2C)cc1`, the protection from cytokine-induced depolarization was -2.94% (inactive).

`COc1ccc(S(=O)(=O)N(C)C[C@@H]2Oc3c(NC(=O)Nc4c(C)noc4C)cccc3C(=O)N([C@@H](C)CO)C[C@H]2C)cc1`: the protection from cytokine-induced depolarization was 2.03% (inactive).
